The results in this text go back to a melting point compilation (Tetko et al.; mined from patent text by program, amines drawn as free bases though some values may be those of a salt).

As a reminder, the melting point is the temperature of the solid-liquid transition.

Take `CC(=O)c1cc(Cl)c(N)c(I)c1F`: the melting point lay in the range of 117 to 119 °C.

Consider `Cn1cc(Oc2cccc(C(F)(F)F)c2)c(=O)c(-c2cccc(C(F)(F)F)c2)c1`, for which the melting point was in the range of 93 to 95 °C. In the case of `O=C(O)c1cn(CCF)c2c(F)c(F)c(F)cc2c1=O` it was 208 to 210 °C; in that of `O=C1CN=C(c2ccccc2Cl)c2cc(I)ccc2N1`, 260 to 262 °C.

Take `CO/N=C(\C)c1cccc(Nc2c3ccccc3nc3occc23)c1`: the melting point lay within 137 to 138 °C. For `CCOC(=O)CC(=O)NNC(=O)c1cc2cccc(N(C)S(=O)(=O)c3cccs3)c2[nH]1` the value was 119 to 121 °C. As to `CC(C)(C)OC(=O)C1Cc2ccccc2CN1C(=O)CBr` (configuration not stated), the melting point is 92 to 95 °C. For `Cc1ccc(S(=O)(=O)N(Cc2cc(C(C)(C)C)c(O)c(C(C)(C)C)c2)c2cccnc2Cl)cc1`, the melting point lay within 117 to 119 °C.

Take `COCCOCCOC(=O)C#CC(=O)c1cc(OC)c(OC)c(OC)c1`: the melting point was 33 to 34 °C. Turning to `CC(C)(CO)c1cnc(-c2nn(-c3ccc(F)cc3F)c3c2C2CCC3C2)o1` (configuration not stated), the melting point fell in the range of 66 to 68 °C. In the case of `Cc1nn(C)c(/C(OC(=O)C(C)(C)C)=C(\C#N)c2ccc(C(C)(C)C)cc2)c1C` it was 110 °C; in that of `Nc1c(-c2ccc(Cl)cc2)nc2c(Cl)cc(Cl)cc2c1C(=O)O`, 260 to 261 °C; in that of `c1cc(-n2ccnc2)cc(-n2cnc3cc(-c4ccco4)ccc32)c1`, 175 to 177 °C. As to `Fc1ccc(N2CCN(Cc3cn4cc(Cl)cc(Cl)c4n3)CC2)cc1`, the melting point is 126 to 128 °C. For `CC(=O)N(C(C)=O)c1c(C#N)cnn1-c1c(F)c(F)c(C)c(F)c1F` the value was 132 to 133 °C; for `COCc1cc2c(nc(C)n2C)c(O)c1CCC(=O)c1ccccc1C`, 163 °C; for `CN1CCCC1=NC(=O)Nc1ccc([N+](=O)[O-])cc1`, 180 to 182 °C. `CCCc1cc(=O)oc2c(C(=O)CC)c(O)c3c(c12)OC(C)(C)C=C3` yielded a melting point of 96 to 98 °C. On to `O=c1[nH]cnc2cc(O)c(O)cc12`, for which the melting point was greater than 250 °C.

`CCn1nc(C)sc1=Nc1ccc(N2CCN(c3ccc(OC)cc3)CC2)cc1` registered a melting point of 175 °C.

In the case of `CC(C)(C)OC(=O)N1CC2CCCCC(C1)C2=O`, the melting point was 50 to 52 °C. `COc1ccc(CC(N)=O)cc1C(=O)NCc1ccc(C(F)(F)F)cc1` registered a melting point of 192 to 193 °C. Take `CC1COc2cc(NC(=O)OCc3ccccc3)ccc2N1C(=O)OCc1ccccc1` (configuration not stated): the melting point is 104 to 106 °C.

Take `COC(=O)c1ncc(OCc2ccccn2)nc1NCc1ccc(OC)c(Cl)c1`: the melting point is 132 to 133 °C. `Nc1nc(Nc2ccccc2)sc1C(=O)c1c(F)cccc1F`: the melting point is 183 to 184 °C.

In turn, `CCOC(=O)Cn1cccc(O)c1=O` returned a melting point of 141 to 151 °C. In the case of `C[C@@H](n1cnc2cc(C(N)=O)ccc2c1=O)[C@](O)(Cn1cncn1)c1ccc(F)cc1F` it was 235 to 236 °C; in that of `CC(=O)c1ccc2c(c1)ncn2-c1cccc(C(=O)OC2CCN(C)CC2)c1`, 106 to 107 °C. In the case of `O=[N+]([O-])c1cc(Br)ccc1-c1ccc(Cl)cc1Cl` it was 112 to 115 °C; in that of `Cc1cc2c(-c3cccc(C=O)c3)c(CC(=O)Nc3ccc(F)cc3C(F)(F)F)c(=O)oc2cc1Cl`, 214 to 215 °C.

Turning to `C#CC(C)Oc1cc(-c2nn3c(c2Cl)CCCC3)c(F)cc1Cl` (configuration not stated), the melting point lay within 116 to 120 °C. In turn, `CCOC(=O)COc1c(OC2CCCCO2)cccc1[N+](=O)[O-]` (configuration not stated) gave a melting point of 49 to 50 °C. In the case of `COCCn1cc2c(C3C(=O)Nc4ccc(Br)cc43)nc(NCCC3CCCNC3)nc2n1` (configuration not stated) it was 270 to 273 °C; in that of `CC1CCc2cc(C(O)C(C)N3CCC(n4c(=O)[nH]c5ccccc54)CC3)ccc2S1` (configuration not stated), 237 to 239 °C. As to `Cc1csc2nc(=O)n(C)c(-c3ccccc3F)c12`, the melting point was 176 to 178 °C. Consider `Nc1nc2c(s1)CCN(CC=Cc1cccc(OCc3ccccc3)c1)CC2`, for which the melting point was in the range of 78 to 80 °C. The molecule `O=C(OCCN1CCNC1=Nc1ccccc1N1CCOCC1)c1ccccc1` showed a melting point of 92 to 94 °C.

Turning to `NC(=O)CCCCCc1cccnc1`, the melting point was 64 to 65 °C. The molecule `CCOc1ccc2[nH]c3c(c2c1)C[C@@]1(C)C(=O)N(CCBr)C(=O)N1[C@@H]3c1cccc(O)c1` (racemic) gave a melting point of 250 to 252 °C. As for `COC(=O)CCc1cc([N+](=O)[O-])c(O)c(C(C)(C)C)c1`, the melting point was in the range of 41 to 42 °C. In the case of `CC1=NN(C)C(=O)C1=Cc1ccc(Cl)cc1Cl` it was 128 °C; in that of `NC(=O)C1(CC23CC4CC(CC(C4)C2)C3)C=C(O)C=CC1Cl` (configuration not stated), 263 to 264 °C. For `O=C1CC(c2cccc(-n3ccnc3)c2)=Nc2cc(OCCO)c(C#Cc3ccccc3)cc2N1` the value was 224 to 227 °C; for `COC(=O)c1sccc1NS(=O)(=O)c1nc2nc(C3CC3)cc(C)n2n1`, 133 to 134 °C. As to `COc1ccc(C(O)C(F)(F)C(=O)SC(C)(C)C)cc1` (configuration not stated), the melting point lay within 73 to 75 °C.

In turn, `O=C1CCCc2c1c1cccc(Cl)c1n2Cc1ccc(F)cc1` registered a melting point of 166 °C.

Molecule `O=P(O)(O)C(O)(CCCc1ccc(Cl)cc1)P(=O)(O)O` showed a melting point of 181 °C. `CC1(C)OC(=O)C(Oc2ccc3ncccc3c2)=C1c1ccc(S(C)(=O)=O)cc1` registered a melting point of 171 to 172 °C.

Molecule `CN(C)c1cccc2c(S(=O)(=O)Nc3ccc(Br)nc3)cccc12` gave a melting point of 164 to 165 °C. Molecule `Nc1c(F)cc(C=O)c(F)c1Br` returned a melting point of 132 to 133 °C. The molecule `CCN1C(=O)C(C)(C)c2ccc(C(=O)Nc3ccccc3)cc21` registered a melting point of 227 to 230 °C. For `O=C(Nc1ccccc1)OC(C1CC1)C1CC1` the value was 92 to 94 °C. For `c1ccc2cc(N3CCN(Cc4n[nH]c5ccccc45)CC3)ncc2c1` the value was 214 to 215 °C. On to `COC(=O)c1ccc(CNC(=O)c2cccc(-c3nnn(Cc4ccc(OC)cc4)n3)c2)cc1`, for which the melting point fell in the range of 167 to 168 °C. For `Cc1c(C(=O)Nc2ccc(N3CCN(CCO)CC3)c(C#N)c2)cnn1-c1ccc(F)cc1F` the value was 149 to 151 °C; for `CN1C(=O)CN=C(c2ccccc2F)c2cc(NC(=O)NC(C)(C)C)ccc21`, 210 °C; for `O=C(Nc1ccc(C[C@H](NS(=O)(=O)N2CCCCCC2)C(=O)O)cc1)c1c(Cl)cncc1Cl`, 185 °C. Take `CC(CCCc1ccc(F)cc1)c1cc(NC(N)=O)c2c(c1)OC(C)(C)c1ccncc1-2` (configuration not stated): the melting point lay within 179 to 181 °C. Regarding `CC1(C)CC(=O)c2cc(OCc3ccccc3)ccc2O1`, the melting point lay within 105 to 107 °C. In turn, `COc1cc(NC(N)=S)c(Cl)c(OC)c1` returned a melting point of 159 to 162 °C.

On to `O=C1c2ccccc2C(=O)N1CC(=O)N1c2ccccc2N(Cc2ccncc2)C(=O)[C@H]2CCC[C@H]21` (relative stereo), for which the melting point is 211 to 212 °C. `COC1C(O)C(CO)OC1n1cnc2c(=S)n(C)cnc21` (configuration not stated): the melting point lay in the range of 182 to 187 °C. As to `Cc1ccc(N(Cc2ccc(N(C)C)cc2)C(=O)Nc2c(C(C)C)cccc2C(C)C)c(C)c1`, the melting point stood at 100 °C. `COc1ccc(CC(S)C(N)=O)cc1C(=O)NCc1ccc(C(F)(F)F)cc1` (configuration not stated) yielded a melting point of 159 to 161 °C.

In turn, `CO/C(=C\C=C\c1cc2ccccc2[nH]1)C(=O)NCc1ccccc1` returned a melting point of 204 to 205 °C. For `CCSCC12CCC(=O)C=C1CCC1C3CC(CC)C(=O)C3(C)CCC12` (configuration not stated) the value was 73 °C. In the case of `CCCCCC(=O)Oc1c(-c2ccc(-c3ccccc3)cc2)nc2ccc(F)cc2c1C(=O)O` it was 179 to 206 °C; in that of `CCOC(=O)CN(CP(=O)(OSc1cc(Cl)ccc1Cl)OSc1cc(Cl)ccc1Cl)C(=O)C(F)(F)F`, 77 to 80 °C. As for `O=C(OCc1ccccc1C(=O)O)c1ccccc1`, the melting point is 118 to 124 °C. For `O=c1c2c(F)cccc2nc(CSc2ncnc3[nH]cnc23)n1-c1ccccc1Cl` the value was 223 to 224 °C. In the case of `CC(NC(=O)Cc1cc(F)cc(F)c1)C(=O)NC1C(=O)NC(F)c2ccccc21` (configuration not stated) it was 195 to 200 °C. In the case of `COCCn1cc(C(=O)NCc2ccc(Cl)cc2)c(=O)c2cc(CN(C)C[C@@H](O)c3ccco3)sc21` it was 121 to 122 °C; in that of `N[C@@H](CC(=O)N1CCn2c(nnc2C(F)(F)F)C1)Cc1cc(F)c(F)cc1F`, 118 °C.

For `CC#CCOc1ccc(S(=O)(=O)C(C(=O)NO)c2cccc(Cl)c2)cc1` (configuration not stated), the melting point came out at 50 °C. For `CC1CC(N)=NN1c1nc2c(s1)CCCC2` (configuration not stated), the melting point was in the range of 247 to 249 °C.

Regarding `O=C1CCc2cc(Cl)ccc2C(=O)CCCN1`, the melting point was 142 to 144 °C. The molecule `Brc1ccc2c(c1)OC(c1ccccc1)(c1ccccc1)O2` gave a melting point of 88 to 89 °C. Turning to `CCN(c1ccc(C(=O)c2ccccc2)cc1[N+](=O)[O-])C1CCCCC1`, the melting point is 91.5 to 92 °C. With `CCCC(Oc1ccccc1Br)C(=O)O` (configuration not stated), the melting point was determined as 63 °C. As to `Cn1ccnc1Sc1ccc(Nc2c(C#N)cnc3cc(-c4ccc(N5CCSCC5)nc4)ccc23)cc1Cl`, the melting point is greater than 260 °C. Molecule `CCCC(=O)OCOC(=O)C1=C(C)NC(C)=C(C(=O)OC)C1c1cccc(Cl)c1Cl` (configuration not stated) had a melting point of 128 to 129 °C. `ClCCOc1cccc2c1OCCO2` gave a melting point of 73 °C. Molecule `CCCCCCCCCCCCCCCCN(c1ccccc1)S(=O)(=O)c1ccc(Nc2cc(=O)n(-c3c(C)cc(Cl)cc3Cl)n2C(=O)OCC)cc1` came in with a melting point of 85 °C. For the molecule `CC(C)(C)OC(=O)CN(C(=O)CNC(=O)c1ccc2ccccc2n1)c1ccccc1`, the melting point is 114 °C. The molecule `Cc1nnccc1-c1c(-c2ccccc2)nn2ccccc12` returned a melting point of 209 to 214 °C. In the case of `CNC(=O)C(Cc1c[nH]c2ccccc12)NC(=O)C(CC(C)C)C(S)CC(=O)OC` (configuration not stated), the melting point is 73 to 75 °C.

For the molecule `Cc1nc(=O)n(-c2cc(C(=O)OC(C)C)c(Cl)cc2F)c(N)c1C#N`, the melting point lay within 255 to 257 °C.
